This note sets out measurements from patent US20030109418A1, “Methods for identifying compounds for inhibition of neoplastic lesions, and pharmaceutical compositions containing such compounds” (priority 1999, published 2003).

Structures can show the parent of a compound that is named as a salt.

The subject of one data set is DU145. In words: Growth inhibition, neutral red assay, DU145. Type of data set: cell-based, human. The note with it: free base, five days. As to the method: (§1) Compound I's activity is not confined to activity against colon cancer cell lines or animal models of colon cancer. It has a broad range of anti-neoplastic effects in various neoplastic cell lines. Various types of human cancer cell lines were propagated under sterile conditions in RPMI 1640 medium with 10% fetal bovine serum, 2 mM L-glutamine and sodium bicarbonate. To determine growth inhibitory effects of Compound I, cells were seeded in 96-well plates at a density of 1000 cells per well. Twenty-four hours after plating, the cells were dosed with various concentrations of the free base of Compound I solubilized in DMSO (final concentration 0.1%). The effect of the drug on tumor cell growth was determined using the neutral red cytotoxicity assay following five days of continuous treatment. Neutral red is a dye that is selectively taken up by viable cells by an ATP-dependent transport mechanism.

For data set [1] the following is noted: rat, in vivo.
In another data set the test system is SW-480 cell line. In words: Growth inhibition in SW-480. In kind it is cell-based. Particulars: Homo sapiens, SW480. As to the method:
The growth inhibition IC50 value obtained for Compound I was 0.7 μM in the SW-480 cell line. […] This established rodent model of azoxymethane (“AOM”)-induced carcinogenesis was used to assess the effects of Compound I (free base and salt) on colon cancer development in vivo. ACF are precursors to colonic tumors, and ACF inhibition is predictive of chemo-preventive efficacy.

A further data set relates to HCT-15. In words: Growth inhibition, neutral red assay, HCT-15. In kind it is cell-based, human. The note with it: free base, five days. As to the method:
as §1

A further data set deals with NCI-H23. In words: Growth inhibition, neutral red assay, NCI-H23. In kind it is cell-based, human. Particulars: free base, five days. As to the method: as §1
For the next data set, the system named is CCRF-CEM. In words: Growth inhibition, neutral red assay, CCRF-CEM. Type of data set: cell-based. Particulars: Homo sapiens, HCl salt. As to the method: as §1
The next data set deals with HT-29. In words: Growth inhibition, neutral red assay, HT-29. The note with it: free base, five days. Type of data set: cell-based, human. As to the method: as §1
The nature of data set [2]: Seven-day dose-range finding study in rats. Type of data set: in vivo, rat.
The subject of data set [3] is PKG activity in SW480 colon cancer cells. In words: PKG assay of lysates of drug-treated SW480 cells. Type of data set: cell-based, human. The note with it: SW480 treated 48 hrs; exisulind 200, 400, 600 μM; E4021 0.1, 1, 10 μM; with and without added cGMP. An excerpt:
That sequence is known and described in the literature below. […] One way to bind the PDE5 sequences to a solid phase is to express those sequences as a fusion protein of the PDE5 sequence and one member of an amino acid binding pair, and chemically link the other member of that amino acid binding pair to a solid phase (e.g., beads). One binding pair that can be used is glutathione S-transferase (“GST”) and glutathione (“GSH”), with the GST being expressed as a fusion protein with the PDE5 sequence described above, and the GSH bound covalently to the solid phase. In this fashion, the PDE5 sequence/GST fusion protein can be bound to a solid phase simply by passing a solution containing the fusion protein over the solid phase, as described below.
To assay a liquid sample believed to contain PKG using the PDE5-bound solid phase described above, the sample and the solid phase are mixed with phosphorylation buffer containing ^32P-γ-ATP. The solution is incubated for 30 minutes at 30° C. to allow for phosphorylation of the PDE5 sequence by PKG to occur, if PKG is present. […]
For each control or drug cell lysate sample to be evaluated, the reaction is started by adding phosphorylation buffer containing 10 μCi ^32P-γ-ATP solution (200 μM ATP, 4.5 mM MgCl; 5 mM KH2PO4; 5 mM K2HPO4;) to each mixture. […]

Data set [4] concerns HT-29 human colon carcinoma cell line. In words: Growth inhibition, SRB assay, HT-29. In kind it is cell-based. The arrangement: Growth Inhibition: key to the marks not given beside the values. In general terms: The SRB assay estimates cell density from bound dye.

In general, GI50 refers to the concentration that inhibits growth by half. By IC50 is commonly meant the concentration needed to halve the response being measured. Turning to `CC1=C(CC(=O)NCc2ccccc2)c2cc(F)ccc2/C1=C\c1ccncc1` [Compound I, (Z)-5-fluoro-2-methyl-(4-pyridylidene)-3-(N-benzyl)indenylacetamide hydrochloride], the GI50 was 1.6 µM in the data set with DU145 (Homo sapiens, DU-145, 120 h); 1.7 µM in the data set with HCT-15 (Homo sapiens, HCT-15, 120 h); 1.7 µM in the data set with NCI-H23 (Homo sapiens, NCI-H23, 120 h); 1.4 µM with CCRF-CEM; 2.1 µM with HT-29 (Homo sapiens, HT-29, 120 h). In the data set on DU145, the “GI90 μM, DU145” value came to 2.8 µM. Also, the “signs of toxicity, single oral doses” value in data set [1] was “no observable signs of toxicity”. Besides, in [1] (ip, 1000 mg/kg), the “findings after single intraperitoneal dose” value was “reduced body weight gain, with mesenteric adhesions seen in some animals”. The “body weight gain, single oral dose” value in [1] (po, 4000 mg/kg) is listed as “body weight gains were slightly reduced”. For the same compound, in the data set on SW-480 cell line, the IC50 was determined as 700 nM. Further, in the data set with HCT-15, the “GI90 μM, HCT-15” value amounted to 3.0 µM. Moreover, the “GI90 μM, NCI-H23” value in the data set with NCI-H23 was 2.5 µM. Further, the “GI90 μM, HT-29” value in the data set with HT-29 stood at 8.0 µM. For the same compound, the “signs of toxicity, seven-day study” value in [2] (50 mg/kg/day) was “no observable signs of toxicity”. Besides, the “treatment-related effects, seven-day study” value in [2] (500 mg/kg/day) was “increase in absolute and relative liver weights in female rats”. In data set [2] (2000 mg/kg/day), the “effects, seven-day study” value is “labored breathing and/or abnormal respiratory sounds, decreased weights gains and food consumption in male rats, and increased liver weights in female rats”.
By inhibition is commonly meant the change of the read-out against control, counted positive when it falls. For the compound `CC1=C(CC(=O)O)c2cc(F)ccc2/C1=C\c1ccc(S(C)(=O)=O)cc1` [Exisulind, 5-fluoro-2-methyl-1-(p-methylsulfonylbenzylidene)-3-indenylacetic acid], the “PKG activity relative to control” value in data set [3] is recorded as “causes PKG activity to increase in a dose-dependent manner”. In addition, in data set [4] (Homo sapiens, HT-29, 144 h, six days, SRB assay, read-out: IC50, growth of HT-29 cells), the IC50 was roughly 200000 nM. Further, the inhibition at 100 µM in data set [4] (Homo sapiens, HT-29, read-out: Growth-inhibitory activity, % Inhibition at 100 μM) is less than 50%. The “Growth Inhibition” value in [4] (qualitative activity profile) was “++”.
